*: point of attachment. NHNH2 = NN*
Assays:
Assay type in all cases: cell-based
[1] = test system: Hek293 cells; assay: EGFP mRNA delivery, robotic library screening, Hek293
Experimental: Cells were seeded in a 96 well plate the day before the experiment at a concentration of 50,000 cell/mL (100 μL/w) in DMEM+10% FBS+1% Gln-Abt. For robotic library screening, the delivery of EGFP-mRNA (from TriLink, fully substituted with 5-methoxyuridine, capped and polyadenylated; TriLink, CleanCap® EGFP mRNA (5moU), ref. L-7201) in six different cell lines was performed. Amphiphilic molecule stock solutions were prepared in DMSO as described above and diluted in DMEM to afford a range of concentrations. The solutions of EGFP-mRNA/amphiphilic molecule complexes were freshly prepared prior to the transfection experiments. 35 μL of the corresponding amphiphile were added to 10 μL of a solution of EGFP-mRNA at 10 ng/μL in DMEM. The mixture was shaken for 30 min at room temperature before the addition to the cells. The cell medium was aspirated, and cells were washed with PBS twice. Cells were covered with 39 μL of DMEM and 11 μL of the complex's solution were added to the cells and incubated for 4 h (final concentration of peptide=2.5, 5 and 10 μM; final concentration of EGFP-mRNA=25 ng/well). After the incubation, the medium was replaced by 100 μL of fresh DMEM supplemented with 10% FBS. The total EGFP fluorescence was quantified after 72 h in a well plate reader. Amphiphile transfection efficiency was compared and normalized to Lipofectamine® MessengerMax efficiency (value of 1 in Tables 1-5 and 7; double underlined numbers). All experiments were done in triplicate.
(§1) Tables 1-7: RLuc (pDNA) or EGFP (mRNA) expression levels were normalized to Lipofectamine reagents (value=1) and expressed as fold-times signal increase. In the case of siRNA, the siRNA treated cells fluorescence was compared with siMOCK control fluorescence, while Cas9-RNP mediated knockout was measured against the fluorescence of untreated cells. In both siRNA and Cas9-RNP, values are expressed as % fluorescence reduction. Amphiphile concentration was 5 μM in all cases. All experiments were performed in triplicate.
Tables 14-19 show the mean (triplicates) fluorescence intensity measured after the transfection of EGFP mRNA by different amphiphiles at different concentrations in a variety of cell lines. Background fluorescence values, accounted by untreated control cells, were subtracted for processing.

[2] = test system: Hek293 cells; assay: RLuc pDNA delivery, robotic library screening, Hek293
[3] = test system: HepG2 cells; assay: RLuc pDNA delivery, robotic library screening, HepG2
Experimental: Cells were seeded in a 96 well plate the day before the experiment at a concentration of 60,000 cell/mL (100 μL/w) in DMEM+10% FBS+1% Gln-Abt. For robotic library screening, the delivery of pDNA encoding for the expression of Renilla luciferase gene (RLuc, pRL-CMV (Promega, #E2261)) in six different cell lines was performed. Amphihilic molecule stock solutions in DMSO were diluted with DMEM and freshly mixed with pDNA stock solutions in DMEM prior to transfection experiments, to afford several complexes at different amphiphile concentration (2-10 μM) while maintaining a constant final pDNA concentration of 2 ng/μL. The mixture was shaken for 30 min at room temperature before the addition to the cells. The cell medium was aspirated, and cells were washed twice with PBS. Finally, 50 μL of the complex's solution were added to the cells and incubated for 4 h. After the incubation, the medium was replaced by 100 μL of fresh DMEM supplemented with 10% FBS. 72 hours after transfection the DMEM was removed, cells were washed once with HBSS and 90 μL of HBSS were added to each well. Cells were incubated at 37° C. for 30 minutes. Then basal luminescence levels were read in a plate reader. Immediately, 10 μL of coelenterazine h in HBSS were added to each well (5 μM final concentration) and cells were incubated at 37° C. for 10 minutes. Finally, the total luminescence measurement of the plates was performed. Amphiphile transfection efficiency was compared and normalized to Lipofectamine® 2000 efficiency (value of 1 in Tables 1-5 and 7; bold numbers). All experiments were done in triplicate.
as §1
Tables 8-13 show the mean (triplicates) luminescent intensity (RLU) measured after the transfection of RLuc pDNA by different amphiphiles at different concentrations in a variety of cell lines. Background luminescence values, accounted by untransfected control cells, were subtracted for processing.

Row | Substance | mean fluorescence intensity (EGFP mRNA) ([1]; Myristoleyl, 2.5 μM) | mean fluorescence intensity (EGFP mRNA) ([1]; Oleyl, 2.5 μM) | mean fluorescence intensity (EGFP mRNA) ([1]; Oleyl, 5 μM) | mean fluorescence intensity (EGFP mRNA) ([1]; Oleyl, 10 μM) | mean fluorescence intensity (EGFP mRNA) ([1]; Petroselinyl, 2.5 μM) | mean fluorescence intensity (EGFP mRNA) ([1]; Petroselinyl, 5 μM) | mean fluorescence intensity (EGFP mRNA) ([1]; Petroselinyl, 10 μM) | mean luminescent intensity (RLuc pDNA) ([2]; Dodecanal, 10 μM) [RLU] | mean luminescent intensity (RLuc pDNA) ([2]; Dodecanal, 15 μM) [RLU] | mean luminescent intensity (RLuc pDNA) ([2]; Palmitoleyl, 5 μM) [RLU] | mean luminescent intensity (RLuc pDNA) ([2]; Petroselinyl, 5 μM) [RLU] | mean luminescent intensity (RLuc pDNA) ([2]; Petroselinyl, 10 μM) [RLU] | mean luminescent intensity (RLuc pDNA) ([3]; Dodecanal, 10 μM) [RLU] | mean luminescent intensity (RLuc pDNA) ([3]; Dodecanal, 15 μM) [RLU] | mean luminescent intensity (RLuc pDNA) ([3]; Myristoleyl, 5 μM) [RLU] | mean luminescent intensity (RLuc pDNA) ([3]; Myristoleyl, 10 μM) [RLU] | mean luminescent intensity (RLuc pDNA) ([3]; Myristoleyl, 15 μM) [RLU] | mean luminescent intensity (RLuc pDNA) ([3]; Palmitoleyl, 5 μM) [RLU] | mean luminescent intensity (RLuc pDNA) ([3]; Palmitoleyl, 10 μM) [RLU] | mean luminescent intensity (RLuc pDNA) ([3]; Palmitoleyl, 15 μM) [RLU] | also measured
1 | Ac-RHLK*RLK*RRLK*RL-NH2 (Ac-RHLKRLKRRLKRL-NH2; not fully specified (residues 4, 7, 11); printed as Ac-RHLK*RLK*RRLK*RL-NH2; also: linker on K* not given here) [13(Arg-His)] | 2326 | 5005 | 1571 | 1231 | 1436 | 638 | 372 | 309302 | 78888 | 280799 | 258944 | 217264 | 45978 | 15867 | 270920 | 65274 | 23425 | 211155 | 107841 | 24788 | mean fluorescence intensity (EGFP mRNA) ([1]; Palmitoleyl, 10 μM): 777; mean luminescent intensity (RLuc pDNA) ([2]; Dodecanal, 5 μM): 265059 RLU; mean luminescent intensity (RLuc pDNA) ([2]; Palmitoleyl, 10 μM): 124471 RLU; mean luminescent intensity (RLuc pDNA) ([2]; Palmitoleyl, 15 μM): 19968 RLU; mean luminescent intensity (RLuc pDNA) ([2]; Petroselinyl, 15 μM): 101890 RLU; mean luminescent intensity (RLuc pDNA) ([3]; Dodecanal, 5 μM): 38257 RLU; mean luminescent intensity (RLuc pDNA) ([3]; Oleyl, 5 μM): 123820 RLU; mean luminescent intensity (RLuc pDNA) ([3]; Oleyl, 15 μM): −1443 RLU; mean luminescent intensity (RLuc pDNA) ([3]; Petroselinyl, 10 μM): 133806 RLU; mean luminescent intensity (RLuc pDNA) ([3]; Petroselinyl, 15 μM): 41128 RLU
2 | Ac-RK*LRK*K*L-NH2 (Ac-RK(NHNH2)LRK(NHNH2)K(NHNH2)L-NH2; not fully specified; printed as Ac-RK*LRK*K*L-NH2; also: K*2,K*5,K*6: native or modified lysine (ε-amide to a linker)) [Peptide 7.3] | 11081 | 3452 | 1414 | 805 | 9200 | 8731 | 476 | 11481 | 13690 | 2088 | 7479 | 2932 | 4529 | 14804 | 109155 | 294365 | 241385 | 107745 | 84207 | 46358 | mean fluorescence intensity (EGFP mRNA) ([1]; Dodecanal, 2.5 μM): 9114; mean fluorescence intensity (EGFP mRNA) ([1]; Dodecanal, 5 μM): 17096; mean fluorescence intensity (EGFP mRNA) ([1]; Dodecanal, 10 μM): 2056; mean fluorescence intensity (EGFP mRNA) ([1]; Myristoleyl, 5 μM): 2907; mean fluorescence intensity (EGFP mRNA) ([1]; Myristoleyl, 10 μM): 982; mean fluorescence intensity (EGFP mRNA) ([1]; Palmitoleyl, 2.5 μM): 4120; mean luminescent intensity (RLuc pDNA) ([2]; Myristoleyl, 5 μM): 94318 RLU; mean luminescent intensity (RLuc pDNA) ([2]; Myristoleyl, 10 μM): 179823 RLU; mean luminescent intensity (RLuc pDNA) ([3]; Petroselinyl, 5 μM): 228306 RLU; mean luminescent intensity (RLuc pDNA) ([3]; Petroselinyl, 10 μM): 150739 RLU; mean luminescent intensity (RLuc pDNA) ([3]; Petroselinyl, 15 μM): 51938 RLU

— patent publication US20250304623A1, “PEPTIDES FOR INTRACELLULAR DELIVERY” (UNIVERSIDADE DE SANTIAGO DE COMPOSTELA, priority 2022, published 2025)
